Here are results for 2 molecules from ChEMBL document CHEMBL1125706, “An approach to the design of receptor-type-selective non-peptide antagonists of peptidergic receptors: delta opioid antagonists” (J Med Chem, 1991).

As usually defined, the Ki is a measure of affinity in units of concentration, obtained from inhibition or displacement. Lower therefore signals a stronger hold on the target.

Non-standard residues stand in square brackets, D forms with d. Residues, ends and D or L forms follow the SMILES beside them. *: point of attachment. Tyr(Nα,Nα-allyl2) = C=CCN(CC=C)[C@@H](Cc1ccc(O)cc1)C(=O)*; Aib = CC(C)(N)C(=O)O Where only a bound is given, the exact number is not on record here.

Assay [1] addresses T1, Opioid receptors; delta & kappa (Homo sapiens) (UniProt P41145+P41143). Briefly: Ke selectivity ratio (kappa/delta) of the compound. The assay is classed as protein assay.
The target in assay [2] is T2, Opioid receptors; mu & delta (Homo sapiens) (UniProt P41143+P35372). Put plainly: Ke selectivity ratio (mu/delta) of the compound. It is filed as protein assay.
The target of assay [3] is T2, Opioid receptors; mu & delta (Homo sapiens). Put plainly: Ki selectivity ratio (mu/delta) of the compound. The assay is classed as protein assay.
Assay [4] addresses T1, Opioid receptors; delta & kappa (Homo sapiens). Put plainly: Ki selectivity ratio (kappa/delta) of the compound. The assay is classed as protein assay.
The target of assay [5] is Kappa-type opioid receptor (Cavia porcellus, UniProt P41144). Put plainly: Compound was evaluated for binding affinity of Opioid receptor kappa 1 in guinea pig brain membranes. The assay is classed as cell membranes, Membrane.
Assay [6] concerns the target Delta-type opioid receptor (Mus musculus) (UniProt P32300). Put plainly: Compound was evaluated for antagonist potency in the mouse vas deferens preparation using [D-Ala2,D-Leu5]enkephalin (Opioid receptor delta 1). The assay is classed as functional.

T1 sequence (P41143 whole entry, looked up): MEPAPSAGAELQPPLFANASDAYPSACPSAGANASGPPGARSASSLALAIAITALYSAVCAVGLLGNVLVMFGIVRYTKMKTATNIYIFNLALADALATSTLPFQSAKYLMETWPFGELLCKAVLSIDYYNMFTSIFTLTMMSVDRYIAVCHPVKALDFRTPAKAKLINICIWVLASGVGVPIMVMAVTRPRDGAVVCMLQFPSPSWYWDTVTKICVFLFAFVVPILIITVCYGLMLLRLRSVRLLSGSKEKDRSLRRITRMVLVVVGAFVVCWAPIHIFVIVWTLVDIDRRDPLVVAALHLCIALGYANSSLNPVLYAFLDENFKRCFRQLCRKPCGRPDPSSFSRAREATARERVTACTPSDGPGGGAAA
T1 sequence (P41145 whole entry, looked up): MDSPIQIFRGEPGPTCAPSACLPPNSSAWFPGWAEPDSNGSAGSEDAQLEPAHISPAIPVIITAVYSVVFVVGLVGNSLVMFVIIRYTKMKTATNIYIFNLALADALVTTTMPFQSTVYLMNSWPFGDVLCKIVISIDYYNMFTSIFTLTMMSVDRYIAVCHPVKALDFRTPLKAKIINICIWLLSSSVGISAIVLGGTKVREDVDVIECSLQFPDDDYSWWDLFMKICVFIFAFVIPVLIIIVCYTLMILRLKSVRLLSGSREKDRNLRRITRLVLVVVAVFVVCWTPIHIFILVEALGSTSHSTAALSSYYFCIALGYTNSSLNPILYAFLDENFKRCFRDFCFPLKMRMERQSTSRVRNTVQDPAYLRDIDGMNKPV
T2 sequence (P35372 whole entry, looked up): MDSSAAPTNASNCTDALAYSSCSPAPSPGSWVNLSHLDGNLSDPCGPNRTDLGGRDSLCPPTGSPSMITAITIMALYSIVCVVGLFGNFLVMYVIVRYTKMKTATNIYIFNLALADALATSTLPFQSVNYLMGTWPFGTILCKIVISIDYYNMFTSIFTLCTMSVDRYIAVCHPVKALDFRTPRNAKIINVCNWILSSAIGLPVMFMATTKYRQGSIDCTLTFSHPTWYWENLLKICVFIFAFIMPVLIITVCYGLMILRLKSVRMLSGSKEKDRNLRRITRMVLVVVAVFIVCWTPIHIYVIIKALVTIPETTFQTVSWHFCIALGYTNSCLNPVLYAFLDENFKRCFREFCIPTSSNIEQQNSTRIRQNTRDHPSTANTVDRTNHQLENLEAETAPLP
T2 sequence (P41143 whole entry, looked up): as the sequence (P41143 whole entry, looked up) above
Kappa-type opioid receptor, sequence (P41144 whole entry): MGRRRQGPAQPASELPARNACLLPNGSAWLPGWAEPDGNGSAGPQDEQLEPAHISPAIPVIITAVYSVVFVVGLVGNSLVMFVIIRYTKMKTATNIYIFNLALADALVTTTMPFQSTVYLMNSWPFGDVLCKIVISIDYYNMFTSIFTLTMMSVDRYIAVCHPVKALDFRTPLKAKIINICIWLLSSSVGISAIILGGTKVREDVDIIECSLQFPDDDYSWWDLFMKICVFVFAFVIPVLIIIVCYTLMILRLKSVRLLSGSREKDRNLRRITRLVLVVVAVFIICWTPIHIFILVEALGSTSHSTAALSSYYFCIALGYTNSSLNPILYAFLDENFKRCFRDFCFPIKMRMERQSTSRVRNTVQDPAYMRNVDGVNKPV
Delta-type opioid receptor (Mus musculus), sequence (P32300 whole entry): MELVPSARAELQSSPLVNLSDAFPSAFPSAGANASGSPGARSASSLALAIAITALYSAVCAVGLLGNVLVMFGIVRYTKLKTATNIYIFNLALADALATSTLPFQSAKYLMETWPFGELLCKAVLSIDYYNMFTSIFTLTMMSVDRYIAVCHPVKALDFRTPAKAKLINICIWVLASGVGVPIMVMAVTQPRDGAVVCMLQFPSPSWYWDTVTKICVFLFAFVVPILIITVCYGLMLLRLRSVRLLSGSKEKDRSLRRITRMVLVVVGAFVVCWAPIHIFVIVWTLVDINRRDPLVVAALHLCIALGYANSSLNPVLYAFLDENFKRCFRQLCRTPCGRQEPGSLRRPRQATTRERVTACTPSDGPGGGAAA

Turning to `C=CCN(CC=C)[C@@H](Cc1ccc(O)cc1)C(=O)NC(C)(C)C(=O)NC(C)(C)C(=O)N[C@@H](Cc1ccccc1)C(=O)N[C@@H](CC(C)C)C(=O)O` ({Tyr(Nα,Nα-allyl2)}-[Aib][Aib]FL-OH), the Selectivity ratio in assay [1] was > 18; in assay [2], > 24; in assay [3], > 29; in assay [4], > 29.
`Oc1ccc2c3c1O[C@H]1c4oc5ccccc5c4C[C@@]4(O)[C@@H](C2)N(CC2CC2)CC[C@]314` [NALTRIBEN] yielded an inhibition constant (Ki) in assay [5] of 0.152 µM. Moreover, the Ke in assay [6] was 0.27 nM.
